Experimental data published in PMC3781034, “A Small-Animal Pharmacokinetic/Pharmacodynamic PET Study of Central Serotonin 1A Receptor Occupancy by a Potential Therapeutic Agent for Overactive Bladder” (PLoS ONE, 2013).

Assays:
5-HT1A receptors [1] = molecular target: T1, 5-HT1A receptors (Rattus norvegicus, UniProt P19327); assay: PET 5-HT1A receptor occupancy, time-course study (effect compartment model); type: in vivo, Sprague-Dawley rat; settings: for EC50: time-course study
T1 construct: occupancy of 5-HT1A receptors in living Sprague-Dawley rat brains; from tissue; host or cells: living Sprague-Dawley rat brain (medial prefrontal cortex, dorsal raphe nucleus), in vivo PET
T1 sequence (P19327 1-422): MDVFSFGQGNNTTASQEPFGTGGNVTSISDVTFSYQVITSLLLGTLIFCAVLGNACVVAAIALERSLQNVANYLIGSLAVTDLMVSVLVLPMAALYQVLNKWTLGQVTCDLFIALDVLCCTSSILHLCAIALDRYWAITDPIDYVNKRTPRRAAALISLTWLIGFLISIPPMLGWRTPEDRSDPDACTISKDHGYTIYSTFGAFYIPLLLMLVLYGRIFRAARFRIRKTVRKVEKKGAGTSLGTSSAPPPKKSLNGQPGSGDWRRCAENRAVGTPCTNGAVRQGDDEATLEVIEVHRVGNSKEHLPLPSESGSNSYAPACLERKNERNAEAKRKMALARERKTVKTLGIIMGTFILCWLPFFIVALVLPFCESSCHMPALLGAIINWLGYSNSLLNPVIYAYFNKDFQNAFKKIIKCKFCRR
Experimental: (§1) All PET scans for rats were performed with a small animal-dedicated microPET FOCUS 220 system (Siemens Medical Solutions USA, Knoxville, TN, USA), which yields a 25.8 cm (transaxial) × 7.6 cm (axial) field of view (FOV) and a spatial resolution of 1.3 mm full width at half maximum at the center of FOV [8]. The rats were anesthetized with 1.5-2% isoflurane in air (2 L/min flow rate). Their body temperature was controlled using homeothermic controller and plate with a rectal probe, and their heart rates and arterial oxygen saturations were continuously measured by a pulse oximeter (CANL-425SVA; Med Associates, St. Albans, VT, USA). We also monitored respiration rates of these animals with a custom-made monitoring system (Nagano Electronics, Hitachinaka, Japan). A 20-min transmission scan for attenuation correction was performed using a spiraling ^68Ge-^68Ga point source. Subsequently, list-mode scans were carried out for 90 min. All list-mode data were sorted and Fourier rebinned into two-dimensional sinograms (frames: 4 × 1, 8 × 2, and 14 × 5 min). Images were thereafter reconstructed using two-dimensional filtered back-projection with a 0.5-mm Hanning filter. [^11C]-WAY-100635 was injected via the tail vein as a single bolus at the start of emission scanning. The injected dose of the radiotracer was 85.3 ± 28.6 MBq/rat (mean ± SD).
(§2) Anatomical regions of interest (ROIs) were placed on the medial prefrontal cortex (MPFC) and dorsal raphe nucleus (DRN) using PMOD® image software (PMOD Group, Zurich, Switzerland) with reference to the MRI template. Radioligand binding was examined by calculating the binding potential (BP ND; ratio at equilibrium of specifically-bound radioligand to that of nondisplaceable radioligand in tissue) based on a simplified reference tissue model (SRTM) using the cerebellar time-radioactivity curve as reference.
(§3) Occupancy of 5-HT1A receptors by E2110 was calculated using the following equation:
(§4) RO(%)=BPND,baseline−BPND,drug/BPND,baseline×100 (2)
(§5) where BP ND, baseline and BP ND, drug are estimated BP ND at baseline and following drug administration, respectively.
(§6) To examine the dose-RO relationship at a single time point, four male SD rats, which had undergone a baseline PET imaging in advance, were scanned with PET at 4 hours after being pretreated with 4 oral doses (0.3, 1, 3, 10 mg/kg) of E2110. In this assay, approximately 250 µL of blood samples were collected from the tail vein upon initiation of the scan for quantification of plasma concentration of E2110. We further examined RO at different time points after the drug administration by conducting PET scans of four male SD rats at 2, 4, 6 or 8 hours after pretreatment with a single oral dose of 1 mg/kg E2110. In addition to this series of PET assays for male rats, pilot PET scans for female rats (n = 3) were carried out at baseline and 4 hours after oral administration of 0.1 mg/kg E2110 to examine whether relationships between plasma concentration of E2110 and RO by this drug in the brain are consistent between two genders. In all experiments, scans for the same individual receiving E2110 were conducted more than 1 week apart.
(§7) The effect compartment model is illustrated in Figure 2. The mean plasma concentration profile of E2110 in each of four rats was fitted by two-compartment model with first order absorption and elimination. A sigmoid Emax model (Equation 4) based on the concentration in the effect compartment was fitted to the PD (RO) data. PK and PD models were linked using an effect compartment model described by the following equation: […]
(§8) where Cp and Ce are concentrations of E2110 in the plasma and effect compartments, respectively, and ke0 represents the equilibration rate constant for the effect compartment. PK and PD parameters were estimated by using […] (Version 2.01, MicroMath Research, UT, USA).

5-HT1A receptors [2] = assay: Effect compartment model simulation of 5-HT1A RO in female rats; parameters: species or system female SD rats; settings: for simulated 5-HT1A RO: DRN
Description: as §7, §8

5-HT1A receptors [3] = molecular target: T1, 5-HT1A receptors; assay: PET 5-HT1A receptor occupancy, dose-response study ([11C]WAY-100635, Emax model); type: in vivo, Sprague-Dawley rat
Experimental: as §1, §2, §3, §4, §5, §6
As described in previous studies on 5-HT1A receptor antagonists the relationship between RO and plasma drug concentration at equilibrium can be described according to the law of mass action by the curvilinear function, based on the assumption that the free brain concentration is equal to free plasma concentration and the free fraction in plasma is not concentration-dependent:
RO(%)=ROmax/Kdapp+CpCp (3)
where ROmax is the maximum occupancy that can be induced by E2110, Kd ^app the apparent equilibrium constant, and Cp the plasma concentration of E2110. This model is analogous to the Emax model:
where Emax (ROmax) is the maximum effect (maximum RO) and EC50 (= Kd) is the E2110 plasma concentration required to produce 50% of Emax. […]

CYP3A4 = molecular target: T2, CYP3A4 (Homo sapiens, UniProt P08684); assay: Metabolism in human liver microsomes; type: in vitro ADME; settings: unpublished results
T2 construct: from tissue; host or cells: human liver microsomes
T2 sequence (P08684 whole entry): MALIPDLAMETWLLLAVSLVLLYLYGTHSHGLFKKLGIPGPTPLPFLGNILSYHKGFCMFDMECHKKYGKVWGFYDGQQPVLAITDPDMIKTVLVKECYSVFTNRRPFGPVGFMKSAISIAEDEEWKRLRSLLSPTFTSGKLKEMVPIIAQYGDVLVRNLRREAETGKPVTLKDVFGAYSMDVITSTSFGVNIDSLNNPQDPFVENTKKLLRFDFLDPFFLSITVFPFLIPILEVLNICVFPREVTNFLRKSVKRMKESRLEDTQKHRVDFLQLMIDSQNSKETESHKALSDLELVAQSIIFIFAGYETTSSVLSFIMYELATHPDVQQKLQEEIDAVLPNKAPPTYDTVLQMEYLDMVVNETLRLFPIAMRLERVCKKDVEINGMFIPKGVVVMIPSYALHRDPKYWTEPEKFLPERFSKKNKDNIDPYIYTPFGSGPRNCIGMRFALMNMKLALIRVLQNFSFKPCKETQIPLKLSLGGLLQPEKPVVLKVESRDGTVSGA

Work on CNC(=O)c1ccc2ccn(C3CCN(CCc4c(OC)ccc5c4OC(C)(C)CC5=O)CC3)c2c1.O=C(O)/C=C/C(=O)O [E2110, 1-{1-[2-(7-Methoxy-2,2-dimethyl-4-oxochroman-8-yl)ethyl]piperidine-4-yl}-N-methyl-1H-indole-6-carboxamide fumarate] yielded an EC50 (5-HT1A receptors [1]; DRN, 1 mg/kg oral, male SD rats, effect compartment model, read-out: EC50 for occupancy of 5-HT1A receptors (converted)) of 7.38 nM, an EC50 (5-HT1A receptors [1]; DRN, effect compartment model, read-out: EC50 for occupancy of 5-HT1A receptors (converted)) of 5.94 nM and an EC50 (5-HT1A receptors [1]; DRN, read-out: EC50 for 5-HT1A RO, value in parentheses (free concentration-based)) of 0.44 nM. For the same molecule, the EC50 (5-HT1A receptors [1]; MPFC, 1 mg/kg oral, male SD rats, effect compartment model, read-out: EC50 for occupancy of 5-HT1A receptors (converted)) was 5.85 nM, the EC50 (5-HT1A receptors [1]; MPFC, effect compartment model, read-out: EC50 for occupancy of 5-HT1A receptors (converted)) was 4.74 nM and the EC50 (5-HT1A receptors [1]; MPFC, read-out: EC50 for 5-HT1A RO, value in parentheses (free concentration-based)) was 0.35 nM. For the same molecule, the half-life (5-HT1A receptors [1]; Sprague-Dawley, rat, effect compartment model, 1 mg/kg oral, male SD rats, read-out: CNS equilibration t1/2 (from ke0) (converted)) was 1.4 h, the “5-HT1A RO measured by PET versus simulated RO” value (5-HT1A receptors [1]; female rats, 4 hours after oral 0.1 mg/kg, pilot study n = 3) was “in good agreement with calculated data” and the “simulated RO at minimum effective doses during micturition monitoring period” value (5-HT1A receptors [2]; 0.1 mg/kg (8-OH-DPAT model, 1-2 hours postdose) and 0.3 mg/kg (SCL model, 0.5-1 hour postdose)) was “around 60%”. For the same molecule, the “simulated 5-HT1A RO” value (5-HT1A receptors [2]; 0.1 mg/kg oral, 1-2 hours after dosing, 8-OH-DPAT treatment) was 60-70%, the “simulated 5-HT1A RO” value (5-HT1A receptors [2]; 0.3 mg/kg oral, 0.5-1 hour after dosing, SCL model) was 60-80% and the “5-HT1A RO required for significant effects on micturition” value (5-HT1A receptors [2]; inferred from simulated RO and pharmacological tests) was at least 60%. For the same molecule, the “5-HT1A RO at high doses” value (5-HT1A receptors [3]; 3 and 10 mg/kg oral, 4 h, both ROIs (MPFC, DRN)) was “full occupancy”, the EC50 (5-HT1A receptors [3]; DRN, dose-response study, 4 h after oral 0.3-10 mg/kg, male SD rats, Emax model, read-out: EC50 (plasma concentration required for 50% 5-HT1A RO) (converted)) was 5.4 nM and the EC50 (5-HT1A receptors [3]; DRN, dose-response study, Emax model, read-out: EC50 (plasma concentration required for 50% 5-HT1A RO) (converted)) was 4.36 nM. For the same molecule, the EC50 (5-HT1A receptors [3]; DRN, dose-response study, EC50 x unbound fraction in plasma, read-out: free concentration-based EC50 for 5-HT1A RO (converted)) was 0.32 nM, the EC50 (5-HT1A receptors [3]; DRN, dose-response study, read-out: free concentration-based EC50 for 5-HT1A RO (converted)) was 0.264 nM and the EC50 (5-HT1A receptors [3]; DRN, free CNS concentration assumed one-tenth of free plasma, read-out: in vivo EC50 corrected for the difference in free drug concentrations between plasma and CNS) was 0.032 nM. The “free concentration-based EC50 relative to in vitro Ki” value (5-HT1A receptors [3]; MPFC and DRN, dose-response study) was “approximately 10 fold”, the EC50 (5-HT1A receptors [3]; MPFC, dose-response study, 4 h after oral 0.3-10 mg/kg, male SD rats, Emax model, read-out: EC50 (plasma concentration required for 50% 5-HT1A RO) (converted)) was 7.51 nM and the EC50 (5-HT1A receptors [3]; MPFC, dose-response study, Emax model, read-out: EC50 (plasma concentration required for 50% 5-HT1A RO) (converted)) was 6.08 nM. It also gave an EC50 (5-HT1A receptors [3]; MPFC, dose-response study, EC50 x unbound fraction in plasma, read-out: free concentration-based EC50 for 5-HT1A RO (converted)) of 0.45 nM, an EC50 (5-HT1A receptors [3]; MPFC, dose-response study, read-out: free concentration-based EC50 for 5-HT1A RO (converted)) of 0.363 nM and an EC50 (5-HT1A receptors [3]; MPFC, free CNS concentration assumed one-tenth of free plasma, read-out: in vivo EC50 corrected for the difference in free drug concentrations between plasma and CNS) of 0.045 nM. For the same molecule, the “5-HT1A RO, dose dependence” value (5-HT1A receptors [3]; single oral doses of 0.3, 1, 3, and 10 mg/kg, each region) was “dose-dependently induced 5-HT1A RO” and the metabolizing enzyme (CYP3A4) was “primarily metabolized by CYP3A4”.
